Results reported in patent publication US20100168468A1, “WRINKLE-PREVENTING AND IMPROVING COMPOSITION” (Kyowa Hakko Kirin Co., Ltd., priority 2005, published 2010).

Tested on: Fibroblasts
Test: Production amount of type I collagen by fibroblasts
Format: cell-based
Conditions: cultured for two days in DMEM without growth factors; amount without sarcosine set as 100 (FIG. 4)
Experimental: The production of collagen was measured in the following method. Fibroblasts were plated on 24 wells, and were allowed to stand while culturing until the cells fully adhered. Then, the culture liquid (DMEM supplemented with growth factors) was replaced with a medium (DMEM without growth factors) to which the drug (sarcosine) was added to the desired concentration, and cultured for two days. The culture supernatant was removed, and the production amount of type I collagen was determined using the TAKARA's Procollagen type I-Cppeptide EIA KIT. Cell counts were determined by measuring the amount of DNA using Hoechst and then converting it to a cell count. Finally the production amount of collagen was compared as the production amount of collagen per unit cell.

For `CNCC(=O)O` [sarcosine], the “production amount of collagen per unit cell” value was “increases with sarcosine addition in dose dependent manner”.
